Test results taken from EP1169483B1, “VARIATION IN DRUG RESPONSE RELATED TO POLYMORPHISMS IN BETA2- ADRENERGIC RECEPTOR” (UNIVERSITY OF CINCINNATI, priority 1999, dated 2001).

Key:
Ile164 receptor [1] = settings: cited from earlier work; for binding affinity: competition with [125I]cyp in the presence of GTP, Ile164 receptor
Ile164 receptor [2] = settings: Ile164 receptor compared to Thr164 receptor; cited from earlier work
human Ile164 receptor = settings: transgenic mice overexpressing human Ile164 receptor in the heart compared to wild-type receptor; cited from earlier work
Thr164 receptor = settings: COS-7 cells transiently transfected; salmeterol 10 minutes at 37 °C, perfused with saline 30 min; n = 5, p = 0.02

| salmeterol exosite binding (Thr164 receptor) [%] | Compound | binding affinity (Ile164 receptor [1]) | stimulation of adenylyl cyclase (Ile164 receptor [2]) | binding curves (Ile164 receptor [1]; in the absence of GTP, Ile164 compared to Thr164 receptor (Figure 2)) | adenylyl cyclase activity in response to agonist (human Ile164 receptor) |
| --- | --- | --- | --- | --- | --- |
|  | CNC[C@H](O)c1ccc(O)c(O)c1 [epinephrine] | small decrease in binding affinity | decreased stimulation |  |  |
|  | CC(C)NCC(O)c1ccc(O)c(O)c1 (stereo not shown) [isoproterenol] | small decrease in binding affinity |  | different between the two receptors | lowered activities |
|  | NC[C@H](O)c1ccc(O)c(O)c1 [norepinephrine] | small decrease in binding affinity |  |  |  |
| 49 ± 4 | OCc1cc(C(O)CNCCCCCCOCCCCc2ccccc2)ccc1O (stereo not shown) [salmeterol] |  |  |  |  |
